Source: PMC11385693, “Synthesis of ferrocenyl benzimidazole derivatives as novel anti-Toxoplasma gondii agents” (New Journal of Chemistry, 2024)
Values joined by “and” are separate entries in the source; they are usually repeats but may differ in a detail not shown here. Equal values may be shown once. Read-outs that look alike come from different tables or passages of the source.

How the values were obtained:
[1] = test system: RhΔKu80:mNeonGreen strain of T. gondii; assay: microbe, parasite or virus in culture; assay type: cell-based, Toxoplasma gondii
Description: Growth inhibition assays were carried out using the RhΔKu80:mNeonGreen strain of T. gondii, which expresses the mNeonGreen fluorescent protein.[56] Parasite growth inhibition was determined by measuring the fluorescence emission of parasite growth in increasing concentrations of compounds of interest.
T. gondii ΔKu80:mNeon tachyzoites were grown in human foreskin fibroblasts (HFFs) with Dulbecco's modified Eagle's medium (DMEM) supplemented with 3% heat inactivated foetal bovine serum (D3) as the culturing medium. Cells and parasites were maintained at 37 °C and 5% carbon dioxide (CO2).
EC50s were calculated as previously described.[56] Briefly, T. gondii ΔKu80:mNeon parasites were counted by haemocytometer and diluted to 25 000 parasites per mL in 40 mL of D3 media, to give an infection of 5000 parasites per well. The media from a black clear bottomed 96 well plate containing HFFs was then aspirated. 200 μL of uninfected D3 media was added to the top and bottom rows of wells (A and H) to serve as blanks. 200 μL of T. gondii containing D3 media was then added to the remaining wells. The parasites were allowed 2 hours to invade host cells, after which test compounds were added.
The media from the infected 96 well plates was then aspirated and 100 μL of D3 media added to each well, excluding column 12. The first 4 wells of column 12 were filled with 300 μL of drug supplemented D3 media, while the next 4 wells were filled with 300 μL of D3 media supplemented with a different drug. The drug supplemented D3 media was then serially diluted 1 : 3 across the plate, stopping at column 2 and disposing of the media, leaving all wells with 100 μL of media. Finally, the plates were closed and incubated at 37 °C with 5% CO2 for 4 days. After 4 days the fluorescence of each well on the plates was read at 594 nm emission using a PHERAstar FS microplate reader. Graphpad Prism 9 software was used to plot dose–response and determine inhibition of parasite growth.

[2] = Aqueous stability studies (UV-vis monitoring, ESI-MS follow-up); assay type: physicochemical; conditions: for Change of UV-vis spectrum over time (aqueous stability): PBS pH 7.4, HEPES pH 7.0 and acetate buffer pH 4.6, 37 °C, 18 hours, 50 μM
Description: The stability of complexes 14–17 in an aqueous environment was investigated. The stability experiments were performed in PBS (pH 7.4) and HEPES (pH 7.0) buffers, as well as in acidic acetate buffer (pH 4.6), by monitoring the UV-vis spectra of the compounds at 37 °C over an 18-hour period.
To further investigate the stability of 14, the PBS, HEPES and acetate buffer solutions were evaporated to dryness, and then analysed using electrospray ionisation mass spectrometry in the positive ionisation mode.
PBS and HEPES buffers were prepared as described above. An acetate buffer with a concentration of […] and a pH of 4.60 was prepared by dissolving 5.40 g (65.83 mmol) of sodium acetate in 50 mL of dH2O. The resulting solution was then titrated to a pH of 4.60 with glacial acetic acid and made up to 100 mL with dH2O.
1 mM stock solutions of the synthesised target compounds in MeOH were prepared. 1.90 mL of buffer (PBS, HEPES or acetate buffer) was pipetted into cuvettes followed by the addition 100 μL of test compound stock solutions, diluting them to a final concentration of 50 μM. The cuvettes were then stoppered, inverted to mix the solution, and placed in an Agilent Cary 3500 UV-vis spectrophotometer as fast as possible. Blank solutions in matched cuvettes were also prepared by adding 100 μL of MeOH to 1.9 mL of buffer. The solutions in all the cuvettes were stirred at 400 rpm ensure proper mixing. UV spectra were then recoded every 5 minutes for 18 hours with a spectral width of 200–1100 nm to monitor the stability of the test compounds.

HEK293T cell line = conditions: 25 μM, MTT 48 hours
Description: Human prostatic epithelial cells (PNT1A) were cultured in Rosewell Park Memorial Institute (RPMI) media supplemented with 10% heat inactivated FBS. Both cell lines were incubated at 37 °C with 5% CO2. Both cell lines were obtained from ATCC.
The cells were allowed to recover overnight before the addition of compounds.
Stock solutions of the test compounds in DMSO were prepared and serially diluted in DMSO in a 96 well plate. […] 10 μL of the test compounds in media was then pipetted into the plates containing cells in triplicate. The cells were then incubated with the test compounds for 48 hours. After incubation, 10 μL of previously prepared MTT reagent was added to each well followed by incubation of the plates for 4 hours. 100 μL of solubilising agent was then pipetted into each well, and the plates incubated overnight. After overnight incubation the plates were read using a BioTek SYNERGY HTX multimode plate reader at 595 nm. Graphpad Prism 9 software was used to plot dose–response and determine cell viability.

Cyclic voltammetry = assay type: physicochemical
Source text: Ferrocene is known to undergo reversible oxidation and reduction, cycling between its 3^+ ferrocenium and the 2^+ ferrocene (Fc) states.[49,50] This redox behaviour leads to the generation of reactive oxygen species (ROS) through Fenton like reactions, which can in turn lead to parasite death.[51–53] Cyclic voltammetry was used to determine if the synthesised ferrocenyl derivatives had the potential to have an impact on the redox status of the parasite cells. Two different scan rates (25 and 90 mV s^−1) were used to ensure the reliability of the results, compared to ferrocene alone.

T. gondii parasites = assay: Determination of ROS formation by FACS (CellROX deep red); assay type: cell-based, Toxoplasma gondii; conditions: 66 μM, 18 hours, compared with untreated parasites
Description: Once it had been established that two of the synthesised ferrocenyl benzimidazole derivatives were biologically active, their potential mode of action was explored. Given the presence of the ferrocenyl moiety, and the cyclic voltammetry results, it was of interest to investigate whether the compounds induce ROS, which may provide an explanation for their anti-parasitic activity. Thus, cells heavily infected with parasites were incubated with target compounds for 18 hours, before isolating the parasites and staining them with CellRox deep red reagent. CellRox is an oxidation sensitive dye which is non-fluorescent in its reduced state but fluoresces bright red at 665 nm upon being oxidised by ROS. FACS was then used to quantify CellROX parasite florescence.[56] Parasites were incubated with ferrocene carboxylic acid (FcCOOH), and untreated parasites were used as controls.
6 cm dishes of host cells heavily infected with T. gondii were untreated or treated with 66 μM (second highest concentration used in growth inhibition assays) of test compounds for 18 hours. The dishes were then scratched and syringed, before filtering the solution into 10 mL falcon tubes to remove cell debris. The tubes were spun down for 10 minutes at 1500 rpm. The media was then removed from the tubes, and the pellet resuspended in 200 μL of PBS buffer. For each drug, 100 μL of the resuspended pellet was then placed into 2 FACS tubes, one which would then be stained with CellROX dye, and the other 100 μL of PBS added to act as an unstained control. A 1 : 125 dilution of CellROX stock solution was performed, and 100 μL of this solution added to the FACS tubes needing staining. Stained tubes were incubated at 37 °C for at least 15 min before analysis on a BD Celesta flow cytometer. Data was obtained using FACSDiva software with parasites being gated on forward scatter, side scatter and green fluorescence. FlowJo v10 software was used to plot the geometric mean of CellRox fluorescence from at least 5000 parasites on the Cy7 channel.

[3] = Turbidimetric solubility assay; conditions: for solubility at 2 h: kinetic from dmso stock
Description: A single phosphate buffered saline (PBS) tablet (Sigma Aldrich) was dissolved in 200 mL of distilled water (dH2O) (25 °C) to obtain a PBS solution with 0.01 M phosphate buffer, 0.14 M NaCl and 0.003 M KCl.
Stock solutions of the compounds to be tested were prepared in DMSO at a concentration of 10 mM and filtered through syringe filters. Serial dilution of the stock solutions with DMSO was then carried out in a preparatory (prep) 96-well plate giving concentrations between 0.00 and 10.0 mM (0.00, 0.25, 0.50, 1.0, 2.0, 4.0, 8.0 and 10 mM). The solutions were then further diluted into 96-well assay plates containing DMSO, PBS or HEPES buffer by pipetting 4.00 μL of solution from the prep plate to the Assay plate containing 196 μL of DMSO or buffer, giving final concentrations between 0.00 and 200 μM (0.00, 5.00, 10.0, 20.0, 40.0, 80.0, 160 and 200 μM). The assay plates were incubated at 25.0 or 37.0 °C for two hours before their UV-vis absorbance was read at 620 nm with a SPECTROstar Nano microplate reader spectrophotometer. Blank readings were used to gain corrected readings by subtracting them from obtained absorbances for each compound concentration.

[4] = T. gondii ΔKu80:mNeon in HFFs, 4 days, highest concentration 100 μM, NA = not active at the maximum tested concentration, three biological replicates in triplicate, read-out: EC50
[5] = T. gondii ΔKu80:mNeon in HFFs, 4 days, highest concentration 100 μM, NA = not active at the maximum tested concentration, three biological replicates in triplicate

SMILES | Change of UV-vis spectrum over time (aqueous stability) [2] | E 1/2 (Cyclic voltammetry; Run1, scan rate 25 mV s^−1) [mV] | ΔEp (Cyclic voltammetry; Run1, scan rate 25 mV s^−1) [mV] | E 1/2 (Cyclic voltammetry; Run2, scan rate 90 mV s^−1) [mV] | ΔEp (Cyclic voltammetry; Run2, scan rate 90 mV s^−1) [mV] | ROS formation in treated parasites (CellRox red fluorescence) (T. gondii parasites) | Solubility range ([3]; HEPES (pH 7.0), 25 °C) | Solubility class ([3]; HEPES (pH 7.0), 37 °C) | Solubility range ([3]; HEPES (pH 7.0), 37 °C) | Solubility range ([3]; PBS (pH7.4), 25 °C) | Solubility range ([3]; PBS (pH7.4), 37 °C) | also measured
CCc1nc(N)nc(N)c1-c1ccc(Cl)cc1 [Pyrimethamine] | – | – | – | – | – | – | – | – | – | – | – | EC50 [1, 4]: 13.8 µM; EC50 ([1]; Toxoplasma gondii, 96 h, T. gondii ΔKu80:mNeon in HFFs, 4 days, highest concentration 100 μM, NA = not active at the maximum tested concentration, three biological replicates in triplicate, read-out: EC50): 13.8 µM
O=C(NCCn1cnc2ccccc21)[c-]1cccc1.[Fe+2].c1cc[cH-]c1 [Compound 15] | remained unchanged | 653 | 105 | 643 | 78 | triggered the formation of ROS | 10-20 µM and 4-7 µg/mL | moderate (a solubility of 10–60 μg mL^−1 is considered moderate) | 20-40 µM and 7–15 µg/mL | 10-20 µM and 4-7 µg/mL | 10-20 µM and 4-7 µg/mL | EC50 [1, 4]: 17.9 µM; Cell survival / % cell viability (HEK293T cell line): 50%
Nc1ccc(S(=O)(=O)Nc2ncccn2)cc1 [Sulfadiazine] | – | – | – | – | – | – | – | – | – | – | – | EC50 ([1]; Toxoplasma gondii, 96 h): 2.56 µM
O=C(Cl)[c-]1cccc1.[Fe+2].c1cc[cH-]c1 [FcCOCl] | – | – | – | – | – | – | – | – | – | – | – | EC50 [1, 5]: no activity
COC(=O)[C@H]1[C@H]2C[C@@H]3c4[nH]c5cc(OC)ccc5c4CCN3C[C@H]2C[C@@H](OC(=O)c2cc(OC)c(OC)c(OC)c2)[C@@H]1OC [Reserpine, reference compound] | – | – | – | – | – | – | – | – | – | – | – | solubility at 2 h ([3]; HEPES buffer, 25 °C, pH 7, aqueous buffer): < 5 µM and < 3 µg/mL; solubility at 2 h ([3]; HEPES buffer, 37 °C, pH 7, aqueous buffer): < 5 µM and < 3 µg/mL; solubility at 2 h ([3]; PBS buffer, 25 °C, pH 7.4, aqueous buffer): < 5 µM and < 3 µg/mL; solubility at 2 h ([3]; PBS buffer, 37 °C, pH 7.4, aqueous buffer): < 5 µM and < 3 µg/mL
O=C(O)[c-]1cccc1.[Fe+2].c1cc[cH-]c1 [FcCOOH, ferrocene carboxylic acid, reference compound] | – | 688 | 89 | 689 | 71 | only showed slightly more ROS present than untreated parasites | – | – | – | – | – | EC50 [1, 5]: no activity
O=C(NCCn1cnc2ncccc21)[c-]1cccc1.[Fe+2].c1cc[cH-]c1 [Compound 16] | remained unchanged | 632 | 99 | 642 | 69 | not | 20-40 µM and 7-15 µg/mL | poor (solubility <10 μg mL^−1 are considered to have poor solubility) | 10-20 µM and 4–7 µg/mL | 10-20 µM and 4-7 µg/mL | 10-20 µM and 4-7 µg/mL | –
[Fe+2].c1cc[cH-]c1.c1cc[cH-]c1 [Fc, ferrocene, reference compound] | – | 451 | 108 | 453 | 83 | – | – | – | – | – | – | –
O=C(NCCn1c(-c2ccccc2)nc2ccccc21)[c-]1cccc1.[Fe+2].c1cc[cH-]c1 [Compound 14] | showed reduced intensity over time | 638 | 89 | 641 | 75 | – | 20-40 µM and 9-18 µg/mL | poor (solubility <10 μg mL^−1 are considered to have poor solubility) | 5-10 µM and 2–4 µg/mL | 10-20 µM and 4-9 µg/mL | 10-20 µM and 4-9 µg/mL | Stability in buffer by ESI-MS of evaporated buffer solutions ([2]; PBS, HEPES and acetate buffer, molecular ion peak present): remained intact and was stable
